Laboratory results as given in patent publication US6479435B1, “Diaryl ethers and processes for their preparation and herbicidal and desiccant compositions containing them” (ISK Americas Incorporated, priority 1997, dated 2002).

Columns and labels:
Assay type in all cases: in vivo
[1] = system: upland rice (Oryza sp., var.Tebonnet, RICE); test: Pre-emerge greenhouse test, crop damage rating; details: 14 days after application, rating scale 0-100
Outline: (§1)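 Visual 0–100 injury rating (100 = all plants dead) taken 14 days after treatment. Rates of 125–1000 g ai/ha in acetone, 187 l/ha, were sprayed onto soil one day post-sowing; pots were surface-watered to incorporate, then bottom-watered.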

[2] = system: field corn (Zea mays L., var. Dekalb 535, CORN); test: Pre-emerge greenhouse test, crop damage rating; details: 14 days after application, rating scale 0-100
Outline: as §1

[3] = system: soybean (Glycine max L., var. Pella 86, SOY); test: Post-emerge greenhouse test, crop damage rating; parameters: key to crop damage rating SOY: 0-100 scale: 0 = no damage, 100 = complete death of all plants; details: 14 days after application, scale 0-100
Outline: (§2)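 Scores use a 0 (no damage) to 100 (complete kill) scale, taken 14 days after a foliar spray. Acetone solutions with 0.25% v/v non-ionic surfactant were applied by track sprayer at 187 l/ha and 63-1000 g ai/ha to bottom-watered 2-3 leaf plants.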

[4] = system: redroot pigweed (Amaranthus retroflexus, AMARE); test: Post-emerge greenhouse herbicide test, phytotoxicity rating; details: 14 days after application, scale 0-100
Outline: as §2

[5] = system: Johnsongrass (Sorghum halepense, SORHA); test: as above; details: 14 days after application, scale 0-100
Outline: as §2

[6] = system: green foxtail (Setaria viridis, SETVI); test: as above; details: 14 days after application, scale 0-100
Outline: as §2

[7] = system: large crabgrass (Digitaria sanguinalis, DIGSA); test: as above; details: 14 days after application, scale 0-100
Outline: as §2

[8] = system: sicklepod (Cassia obtusifolia, CASOB); test: as above; details: 14 days after application, scale 0-100
Outline: as §2

[9] = system: velvetleaf (Abutilon theophrasti, ABUTH); test: as above; details: 14 days after application, scale 0-100
Outline: as §2

[10] = system: barnyardgrass (Echinochloa crusgalli, ECHCG); test: as above; details: 14 days after application, scale 0-100
Outline: as §2

[11] = system: lambsquarters (Chenopodium album, CHEAL); test: as above; details: 14 days after application, scale 0-100
Outline: as §2

[12] = system: ivyleaf morningglory (Ipomoea hederacea, IPOHE); test: as above; details: 14 days after application, scale 0-100
Outline: as §2

[13] = system: soybean (Glycine max L., var. Pella 86, SOY); test: Pre-emerge greenhouse test, crop damage rating; parameters: key to SOY crop damage rating: 0 = no damage, 100 = complete death of all plants; details: 14 days after application, rating scale 0-100
Outline: as §1

[14] = system: common ragweed (Ambrosia artemisiifolia L., AMBEL); test: Post-emerge greenhouse herbicide test, phytotoxicity rating; details: 14 days after application, scale 0-100
Excerpt: A standard greenhouse herbicide activity screening system was used to evaluate the herbicidal efficacy and crop safety of these test compounds. Six broadleaf weed species including redroot pigweed (Amaranthus retroflexus, AMARE), velvetleaf (Abutilon theophrasti, ABUTH), sicklepod (Cassia obtusifolia, CASOB), ivyleaf morningglory (Ipomoea hederacea, IPOHE), lambsquarters (Chenopodium album, CHEAL) and common ragweed (Ambrosia artemisiifolia L., AMBEL) were used as test species. Four grass weed species including green foxtail (Setaria viridis, SETVI), barnyardgrass (Echinochloa crusgalli, ECHCG), Johnsongrass (Sorghum halepense, SORHA), and large crabgrass (Digitaria sanguinalis, DIGSA) were also used. In addition, three crop species, field corn (Zea mays L., var. Dekalb 535, CORN), soybean (Glycine max L., var. Pella 86, SOY), and upland rice (Oryza sp., var.Tebonnet, RICE) were included.
All test compounds were dissolved in acetone and applied to the test units in a volume of 187 l/ha. […] Plants were arranged on a shelf so that the top of the canopy (post-emerge) or top of the soil surface (pre-emerge) was 40-45 cm below the nozzle. Pressurized air was used to force the test solution through the nozzle as it was mechanically advanced (via electrically driven chain drive) over the top of all test plants/pots. This application simulates a typical commercial field herbicide application.
In the post-emerge test, a commercial non-ionic surfactant was also included (0.25% v/v) to enhance wetting of the leaf surfaces Qf target plants at rates ranging from 63 g ai/ha to 1000 g ai/ha. For post-emerge tests, seeds were planted 8-21 days prior to the test to allow emergence and good foliage development prior to application of the test substances. At the time of the post-emerge application, plants of all species were usually at the 2-3 leaf stage of development. Post-emerge test units were always bottom-watered.
At 14 days after application of the test materials, phytotoxicity ratings were recorded. A rating scale of 0-100 was used as previously described in Research Methods in Weed Science, 2nd edition, B. Truelove, Ed., Southern Weed Science Society, Auburn University, Auburn, Ala., 1977. Briefly, “0” corresponds to no damage and “100” corresponds to complete death of all plants in the test unit. This scale was used both to determine efficacy against weed species and damage to crop species. Herbicide activity data for various compounds of this invention, which are shown by compound number in Tables 1-9, are shown in Tables 13 and 14.

[15] = system: redroot pigweed (Amaranthus retroflexus, AMARE); test: Pre-emerge greenhouse herbicide test, phytotoxicity rating; details: 14 days after application, rating scale 0-100
Outline: as §1

[16] = system: Johnsongrass (Sorghum halepense, SORHA); test: as above; details: 14 days after application, rating scale 0-100
Outline: as §1

[17] = system: green foxtail (Setaria viridis, SETVI); test: as above; details: 14 days after application, rating scale 0-100
Outline: as §1

[18] = system: large crabgrass (Digitaria sanguinalis, DIGSA); test: as above; details: 14 days after application, rating scale 0-100
Outline: as §1

[19] = system: sicklepod (Cassia obtusifolia, CASOB); test: as above; details: 14 days after application, rating scale 0-100
Outline: as §1

[20] = system: velvetleaf (Abutilon theophrasti, ABUTH); test: as above; details: 14 days after application, rating scale 0-100
Outline: as §1

[21] = system: barnyardgrass (Echinochloa crusgalli, ECHCG); test: as above; details: 14 days after application, rating scale 0-100
Outline: as §1

[22] = system: lambsquarters (Chenopodium album, CHEAL); test: as above; details: 14 days after application, rating scale 0-100
Outline: as §1

[23] = system: ivyleaf morningglory (Ipomoea hederacea, IPOHE); test: as above; details: 14 days after application, rating scale 0-100
Outline: as §1

[24] = system: upland rice (Oryza sp., var.Tebonnet, RICE); test: Post-emerge greenhouse test, crop damage rating; details: 14 days after application, scale 0-100
Outline: as §2

[25] = system: field corn (Zea mays L., var. Dekalb 535, CORN); test: Post-emerge greenhouse test, crop damage rating; details: 14 days after application, scale 0-100
Outline: as §2

## CCOC(=O)C(C)Oc1ccc(Oc2cc(-n3c(=O)n4n(c3=O)CCCC4)c(F)cc2Cl)c([N+](=O)[O-])c1 (stereo not shown) [Compound 8-41]
[1]; Rate 125 g al/ha
  RICE crop damage rating: 0
[1]; Rate 250 g al/ha
  RICE crop damage rating: 0
[2]; Rate 125 g al/ha
  CORN crop damage rating: 0
[2]; Rate 250 g al/ha
  CORN crop damage rating: 0
[3]; rate 63 g ai/ha
  crop damage rating SOY: 30
[3]; rate 250 g ai/ha
  crop damage rating SOY: 60
[4]; rate 63 g ai/ha
  phytotoxicity rating AMARE: 40
[4]; rate 250 g ai/ha
  phytotoxicity rating AMARE: 40
[5]; rate 63 g ai/ha
  phytotoxicity rating SORHA: 0
[5]; rate 250 g ai/ha
  phytotoxicity rating SORHA: 0
[6]; rate 63 g ai/ha
  phytotoxicity rating SETVI: 0
[6]; rate 250 g ai/ha
  phytotoxicity rating SETVI: 0
[7]; rate 63 g ai/ha
  phytotoxicity rating DIGSA: 0
[7]; rate 250 g ai/ha
  phytotoxicity rating DIGSA: 0
[8]; rate 63 g ai/ha
  phytotoxicity rating CASOB: 30
[8]; rate 250 g ai/ha
  phytotoxicity rating CASOB: 100
[9]; rate 63 g ai/ha
  phytotoxicity rating ABUTH: 95
[9]; rate 250 g ai/ha
  phytotoxicity rating ABUTH: 100
[10]; rate 63 g ai/ha
  phytotoxicity rating ECHCG: 0
[10]; rate 250 g ai/ha
  phytotoxicity rating ECHCG: 0
[11]; rate 63 g ai/ha
  phytotoxicity rating CHEAL: 40
[11]; rate 250 g ai/ha
  phytotoxicity rating CHEAL: 50
[12]; rate 63 g ai/ha
  phytotoxicity rating IPOHE: 30
[12]; rate 250 g ai/ha
  phytotoxicity rating IPOHE: 100
[13]; Rate 125 g al/ha
  SOY crop damage rating: 0
[13]; Rate 250 g al/ha
  SOY crop damage rating: 0
[14]; rate 63 g ai/ha
  phytotoxicity rating AMBEL: 00
[14]; rate 250 g ai/ha
  phytotoxicity rating AMBEL: 30
[15]; Rate 125 g al/ha
  AMARE phytotoxicity rating: 80
[15]; Rate 250 g al/ha
  AMARE phytotoxicity rating: 100
[16]; Rate 125 g al/ha
  SORHA phytotoxicity rating: 0
[16]; Rate 250 g al/ha
  SORHA phytotoxicity rating: 0
[17]; Rate 125 g al/ha
  SETVI phytotoxicity rating: 10
[17]; Rate 250 g al/ha
  SETVI phytotoxicity rating: 50
[18]; Rate 125 g al/ha
  DIGSA phytotoxicity rating: 0
[18]; Rate 250 g al/ha
  DIGSA phytotoxicity rating: 0
[19]; Rate 125 g al/ha
  CASOB phytotoxicity rating: 0
[19]; Rate 250 g al/ha
  CASOB phytotoxicity rating: 0
[20]; Rate 125 g al/ha
  ABUTH phytotoxicity rating: 0
[20]; Rate 250 g al/ha
  ABUTH phytotoxicity rating: 70
[21]; Rate 125 g al/ha
  ECHCG phytotoxicity rating: 0
[21]; Rate 250 g al/ha
  ECHCG phytotoxicity rating: 0
[22]; Rate 125 g al/ha
  CHEAL phytotoxicity rating: 70
[22]; Rate 250 g al/ha
  CHEAL phytotoxicity rating: 90
[23]; Rate 125 g al/ha
  IPOHE phytotoxicity rating: 0
[23]; Rate 250 g al/ha
  IPOHE phytotoxicity rating: 0
[24]; rate 63 g ai/ha
  crop damage rating RICE: 0
[24]; rate 250 g ai/ha
  crop damage rating RICE: 0
[25]; rate 63 g ai/ha
  crop damage rating CORN: 0
[25]; rate 250 g ai/ha
  crop damage rating CORN: 0

## CSc1cccnc1Oc1cc(-n2c(=O)n3n(c2=S)CCCC3)c(F)cc1Cl [Compound 8-43]
[1]; Rate 125 g al/ha
  RICE crop damage rating: 20
[1]; Rate 250 g al/ha
  RICE crop damage rating: 20
[2]; Rate 125 g al/ha
  CORN crop damage rating: 0
[2]; Rate 250 g al/ha
  CORN crop damage rating: 0
[3]; rate 63 g ai/ha
  crop damage rating SOY: 80
[3]; rate 250 g ai/ha
  crop damage rating SOY: 100
[4]; rate 63 g ai/ha
  phytotoxicity rating AMARE: 60
[4]; rate 250 g ai/ha
  phytotoxicity rating AMARE: 90
[5]; rate 63 g ai/ha
  phytotoxicity rating SORHA: 20
[5]; rate 250 g ai/ha
  phytotoxicity rating SORHA: 30
[6]; rate 63 g ai/ha
  phytotoxicity rating SETVI: 40
[6]; rate 250 g ai/ha
  phytotoxicity rating SETVI: 60
[7]; rate 63 g ai/ha
  phytotoxicity rating DIGSA: 0
[7]; rate 250 g ai/ha
  phytotoxicity rating DIGSA: 20
[8]; rate 63 g ai/ha
  phytotoxicity rating CASOB: 95
[8]; rate 250 g ai/ha
  phytotoxicity rating CASOB: 100
[9]; rate 63 g ai/ha
  phytotoxicity rating ABUTH: 100
[9]; rate 250 g ai/ha
  phytotoxicity rating ABUTH: 100
[10]; rate 63 g ai/ha
  phytotoxicity rating ECHCG: 20
[10]; rate 250 g ai/ha
  phytotoxicity rating ECHCG: 30
[11]; rate 63 g ai/ha
  phytotoxicity rating CHEAL: 90
[11]; rate 250 g ai/ha
  phytotoxicity rating CHEAL: 100
[12]; rate 63 g ai/ha
  phytotoxicity rating IPOHE: 100
[12]; rate 250 g ai/ha
  phytotoxicity rating IPOHE: 100
[13]; Rate 125 g al/ha
  SOY crop damage rating: 0
[13]; Rate 250 g al/ha
  SOY crop damage rating: 0
[14]; rate 63 g ai/ha
  phytotoxicity rating AMBEL: 100
[14]; rate 250 g ai/ha
  phytotoxicity rating AMBEL: 100
[15]; Rate 125 g al/ha
  AMARE phytotoxicity rating: 20
[15]; Rate 250 g al/ha
  AMARE phytotoxicity rating: 70
[16]; Rate 125 g al/ha
  SORHA phytotoxicity rating: 0
[16]; Rate 250 g al/ha
  SORHA phytotoxicity rating: 0
[17]; Rate 125 g al/ha
  SETVI phytotoxicity rating: 100
[17]; Rate 250 g al/ha
  SETVI phytotoxicity rating: 100
[18]; Rate 125 g al/ha
  DIGSA phytotoxicity rating: 90
[18]; Rate 250 g al/ha
  DIGSA phytotoxicity rating: 100
[19]; Rate 125 g al/ha
  CASOB phytotoxicity rating: 20
[19]; Rate 250 g al/ha
  CASOB phytotoxicity rating: 30
[20]; Rate 125 g al/ha
  ABUTH phytotoxicity rating: 10
[20]; Rate 250 g al/ha
  ABUTH phytotoxicity rating: 30
[21]; Rate 125 g al/ha
  ECHCG phytotoxicity rating: 0
[21]; Rate 250 g al/ha
  ECHCG phytotoxicity rating: 0
[22]; Rate 125 g al/ha
  CHEAL phytotoxicity rating: 100
[22]; Rate 250 g al/ha
  CHEAL phytotoxicity rating: 100
[23]; Rate 125 g al/ha
  IPOHE phytotoxicity rating: 0
[23]; Rate 250 g al/ha
  IPOHE phytotoxicity rating: 20
[24]; rate 63 g ai/ha
  crop damage rating RICE: 10
[24]; rate 250 g ai/ha
  crop damage rating RICE: 30
[25]; rate 63 g ai/ha
  crop damage rating CORN: 20
[25]; rate 250 g ai/ha
  crop damage rating CORN: 30
